Experimental data reported in patent US10899710B2, “Pyridines and their use in the treatment of cancer” (The United States of America, as represented by the …, priority 2015, dated 2021).
Counter-ions that a name gives are not always drawn. Like-named read-outs stand apart in the source and are kept apart here.

Assays:
[1] = molecular target: T1, recombinant thioredoxin reductase 1 (TrxR1) (Homo sapiens, UniProt Q16881); assay: Inhibition of recombinant TrxR1 (DTNB assay); assay type: biochemical; conditions: read-out: TrxR inhibition (IC50)
T1 sequence (Q16881 151-649 limits assumed): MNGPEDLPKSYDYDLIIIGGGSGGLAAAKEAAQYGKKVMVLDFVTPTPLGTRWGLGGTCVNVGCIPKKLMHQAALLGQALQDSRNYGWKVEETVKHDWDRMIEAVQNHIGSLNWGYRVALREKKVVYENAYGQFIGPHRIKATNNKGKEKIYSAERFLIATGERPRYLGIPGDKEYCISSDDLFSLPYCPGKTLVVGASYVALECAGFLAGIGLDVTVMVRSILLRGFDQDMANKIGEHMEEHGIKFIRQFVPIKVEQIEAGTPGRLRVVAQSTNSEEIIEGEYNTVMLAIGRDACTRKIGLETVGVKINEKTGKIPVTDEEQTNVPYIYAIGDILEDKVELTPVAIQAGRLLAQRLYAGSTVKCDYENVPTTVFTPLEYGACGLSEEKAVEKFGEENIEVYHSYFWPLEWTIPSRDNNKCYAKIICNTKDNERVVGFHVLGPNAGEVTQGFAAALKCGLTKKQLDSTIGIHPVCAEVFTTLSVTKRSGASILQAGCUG
Method: (§1) Small molecule inhibition of recombinant thioredoxin reductase 1 (TrxR1) and gluthathione reductase (GR) was examined in 96-well plate format. 15 nM TrxR1 was incubated in the presence of 250 μM NADPH, 0.1 mg/ml BSA, and various concentrations of the compound of Example 1 (1% DMSO final) in 50 mM Tris (pH 7.5) and 2 mM EDTA buffer for 15 minutes. Following the incubation period, 2.5 mM DTNB was added to each well and the change in O.D. at 412 nm was followed. Percent activity was determined using DMSO vehicle and no TrxR1 (blank) controls. 2 nM GR was incubated in the presence of 250 μM NADPH, 0.1 mg/ml BSA, and various concentrations of compounds (1% DMSO final) in 50 mM Tris (pH 7.5) and 2 mM EDTA buffer for 15 minutes. Following the incubation period, 1 mM GSSG was added to each well and the change in O.D. at 340 nm was followed. Percent activity was determined using DMSO vehicle and no GR (blank) controls.

[2] = molecular target: T2, gluthathione reductase (GR) (Homo sapiens, UniProt P00390); assay: Inhibition of recombinant GR (GSSG assay); assay type: biochemical
T2 sequence (P00390 44-522): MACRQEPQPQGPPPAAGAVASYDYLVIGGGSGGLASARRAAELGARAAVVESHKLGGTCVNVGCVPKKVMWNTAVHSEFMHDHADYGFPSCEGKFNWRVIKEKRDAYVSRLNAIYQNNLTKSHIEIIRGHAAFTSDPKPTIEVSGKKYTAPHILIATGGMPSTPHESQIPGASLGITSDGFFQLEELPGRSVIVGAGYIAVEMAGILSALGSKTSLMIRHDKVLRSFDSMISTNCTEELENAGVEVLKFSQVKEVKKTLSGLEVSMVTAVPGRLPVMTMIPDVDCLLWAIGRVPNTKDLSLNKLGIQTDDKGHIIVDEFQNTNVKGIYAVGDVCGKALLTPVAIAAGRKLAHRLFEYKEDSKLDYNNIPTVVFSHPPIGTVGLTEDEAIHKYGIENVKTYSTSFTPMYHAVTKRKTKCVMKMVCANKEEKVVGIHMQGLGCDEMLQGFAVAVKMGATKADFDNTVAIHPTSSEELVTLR
Method: as §1

FaDu cell line = assay: Cell viability inhibition, FaDu cell line; assay type: cell-based; conditions: Homo sapiens, Biological Example 4, 72 hrs
Method: Cell lines were plated 2000 cells/well in 96-well black optical plates in the presence of 10% FBS media containing 25 nM selenite. The following day cells were treated with various concentrations of the compound of Example 1 (0.1% DMSO final) and incubated for 72 hrs. After the incubation Cell-Quanti Blue reagent was added to each well and incubated for additional 3 hrs. Fluorescence was read ex:530 nm/em:590 nm, and percent of viability was determined using DMSO vehicle and no cell (blank) controls.
Using the assays described in Biological Example 1 to assess inhibition of recombinant TrxR1 and GR, the following IC50 values were obtained for the examples described herein. Further, following the protocol described in Biological Example 2, the following IC50 values were obtained for inhibition of cell viability using the FaDu cell line.

[3] = Biological Example 1, 15 nM TrxR1, 15 minutes incubation
[4] = Biological Example 1, 2 nM GR, 15 minutes incubation

Structure (SMILES)	IC50 ([1]; Biological Example 4)	IC50 ([2]; Biological Example 4)	IC50 (FaDu cell line)	IC50 [1, 3]	IC50 [2, 4]
COc1ccc([N+](=O)[O-])c(S(=O)(=O)c2ccc(C)cc2)n1 [Example 6, 6-Methoxy-3-nitro-2-tosylpyridine]	103 nM	> 100000 nM	1380 nM		
Cc1ccc(S(=O)(=O)c2nc(N(C)C)ccc2[N+](=O)[O-])cc1 [Example 15, N,N-dimethyl-5-nitro-6-tosylpyridin-2-amine]	438 nM	> 100000 nM	5910 nM		
COc1ccc(S(=O)(=O)c2nc(N(C)C)ccc2[N+](=O)[O-])cc1 [Example 12, 6-((4-Methoxyphenyl)sulfonyl)-N,N-dimethyl-5-nitropyridin-2-amine]	513 nM	> 100000 nM	7890 nM		
Cc1ccc(S(=O)(=O)c2ncccc2[N+](=O)[O-])cc1 [Example 3, 3-Nitro-2-tosylpyridine Hydrochloride]	221 nM	> 100000 nM	2550 nM	282 nM	> 100000 nM
Cc1ccc(S(=O)(=O)c2nc(Cl)ccc2[N+](=O)[O-])cc1 [Example 11, 6-Chloro-3-nitro-2-tosylpyridine]	40 nM	23700 nM	390 nM		
O=[N+]([O-])c1ccc(Cl)nc1S(=O)(=O)c1ccc(Cl)cc1 [Example 8, 6-Chloro-2-((4-chlorophenyl)sulfonyl)-3-nitropyridine]	16 nM	3570 nM	840 nM		
COc1ccc([N+](=O)[O-])c(S(=O)(=O)c2ccccc2)n1 [Example 4, 6-Methoxy-3-nitro-2-(phenylsulphonyl)pyridine Trifluoroacetate]	24 nM	30800 nM	3260 nM	24 nM	25200 nM
O=[N+]([O-])c1ccc(Cl)nc1S(=O)(=O)c1ccccc1 [Example 10, 6-Chloro-3-nitro-2-(phenylsulfonyl)pyridine]	56 nM	14500 nM	250 nM		
O=[N+]([O-])c1cccnc1S(=O)(=O)c1ccc(Cl)cc1 [Example 5, 2-((4-Chlorophenyl)sulphonyl)-3-nitropyridine Trifluoroacetate]	151 nM	93000 nM	1840 nM	98 nM	47900 nM
O=[N+]([O-])c1cccnc1S(=O)(=O)c1ccccc1 [Example 2, 3-Nitro-2-(phenylsulphonyl)pyridine Trifluoroacetate]	289 nM	> 100000 nM	1420 nM	155 nM	> 100000 nM
COc1ccc(S(=O)(=O)c2nc(Cl)ccc2[N+](=O)[O-])cc1 [Example 9, 6-Chloro-2-((4-methoxyphenyl)sulfonyl)-3-nitropyridine]	70 nM	41700 nM	510 nM		
COc1ccc(S(=O)(=O)c2nc(OC)ccc2[N+](=O)[O-])cc1 [Example 7, 6-Methoxy-2-((4-methoxyphenyl)sulfonyl)-3-nitropyridine]	228 nM	> 100000 nM	2750 nM		
CN(C)c1ccc([N+](=O)[O-])c(S(=O)(=O)c2ccccc2)n1 [Example 14, N,N-dimethyl-5-nitro-6-(phenylsulfonyl)pyridin-2-amine]	345 nM	> 100000 nM	5320 nM		
CN(C)c1ccc([N+](=O)[O-])c(S(=O)(=O)c2ccc(Cl)cc2)n1 [Example 13, 6-((4-Chlorophenyl)sulfonyl)-N,N-dimethyl-5-nitropyridin-2-amine]	176 nM	> 100000 nM	12900 nM		
